# Results from US11993576B2, “N-benzyl-N-arylsulfonamide derivative and preparation and use thereof” (Hangzhou Yirui Pharmaceutical Technology Co., Ltd, priority 2019, dated 2024).
# “Also recorded” adds a separate entry of the source.
# Assays:
# human Kv1.5 = human Kv1.5 (Homo sapiens, UniProt P22460); assay: Conventional patch clamp assay of inhibitory activity against Kv1.5; format: cell-based; conditions: conventional patch-clamp method; CHO-K1 cells stably expressing human Kv1.5
# Experimental: III. Conventional Patch Clamp Assay of Inhibitory Activity Against Kv1.5
# The principle and method for the conventional patch clamp method can be found in Grissmer et al. [Grissmer et al. Molecular Pharmacology 1994, 45:1227-1234].
# (§1) Inhibitory activity of a compounds against Kv1.5 was assessed using a CHO-K1 recombinant cell line stably expressing human Kv1.5 (Charles River, Calif.). The cells were cultured in an F-12K culture medium containing 5% calf serum (Invitrogen, Carlsbad.ca) in an incubator at 37° C. and under air humidity with 6% CO2.
# (§2) During the experiment, adherent cells were placed in a recording chamber under an inverted microscope. All the experiments were performed at room temperature. Each of the cells used itself as the control.
# (§3) The test compounds were formulated to their final concentrations on the day of assay, and then dissolved in an extracellular fluid. The extracellular fluid (mM) was: NaCl, 137; KCl, 4; CaCl2, 1.8; MgCl2, 1; HEPES, 10; glucose 10; pH 7.4 (NaOH titration). All the solutions of the test compounds and the control compounds contained 0.3% of DMSO.
# (§4) Each of the compounds was perfused by a gravity-driven perfusion system. At least two cells were tested for each of the concentrations of a compound. After the current was stable, the blocking effect of the compounds was calculated by comparing the change in the current before and after administration of the compounds.
# 1000 μM 4-AP was used as a positive control.
# (§5) The cells were transferred to a perfusion chamber, and were perfused with the extracellular fluid. Intracellular fluid (mM): K-aspartate, 130; MgCl2, 5; EGTA 5; HEPES, 10; pH 7.2 (KOH titration). The intracellular fluid was stored in a small amount in a refrigerator at −80° C. in batches, and was thawed on the day of the experiment. The electrodes were drawn by PC-10 (Narishige, Japan). A whole-cell patch-clamp recording was performed, with the noise being filtered by one-fifth of the sampling frequency.
# (§6) The cells were clamped at −80 mV and then depolarized to 20 mV with square waves lasting for 2 seconds to obtain a Kv1.5 current. This process was repeated every 20 seconds. The maximum current elicited by the square waves was detected. After the maximum current became stable, the test compounds were perfused. After the reaction was stable, the blocking strength was calculated.
# Data was collected and analyzed using pCLAMP 10 (Molecular Devices, Union City, CA). A stable current meant a current which varies within a limited range over time. The value of the stable current was used to calculate the effect of a compound at this […].
# human Kv1.3 [1] = target: T1, human Kv1.3 (Homo sapiens, UniProt P22001); assay: IonWorks automated patch clamp assay of inhibitory activity against Kv1.3; format: cell-based; conditions: automated patch clamp method; CHO-K1 cells stably expressing human Kv1.3
# Experimental: I. IonWorks Automated Patch Clamp Assay of Inhibitory Activity Against Kv1.3
# The principle and method for Kv1.3 IonWorks assay can be found in Schroeder et al. [Schroeder et al. J Biomol Screen 2003, 8(1):50-64]
# Inhibitory activity of the compounds against Kv1.3 was assessed using a CHO-K1 recombinant cell line stably expressing human Kv1.3 (Charles River, Calif.). The cells were cultured in an F-12K culture medium containing 5% calf serum (Invitrogen, Carlsbad. Calif.) in an incubator at 37° C. and under air humidity with 6% CO2. Prior to be fed in the IonWorks system, the adherent cells were treated with Versene at 37° C. for 6-7 min. After gently beating the culture flask, the cells were re-suspended in a PBS phosphate buffer, and then were centrifuged at 50×g for 4 min. After a short grinding, the cells were eventually re-suspended in an external recording solution at a density of approximately 1×10^6/mL.
# The compounds were dissolved in DMSO to formulate a final assay concentration of 300× on the master plate. The final gradient assay concentrations were […], 0.096, 0.048, 0.24, 1.2, 6 and 30 μM. All 300× stock solutions of each compound in DMSO were transferred to a 384-well plate with 2 μl per well. The plates were sealed and stored at −80° C. until the day of assay.
# On the day of assay, the plates were each thawed at room temperature. After centrifugation, 198 μl of the external recording solution (with the components of: 130 mM Na-Gluconate, 20 mM NaCl, 4 mM KCl, 1 mM MgCl2, 1.8 mM CaCl2, 5 mM Glucose and 10 mM HEPES, pH7.3) was added and mixed thoroughly. This step provided a 1:100 dilution for the compounds. After addition of cells to IonWorks, a further 1:3 dilution was carried out, resulting in a total dilution of 1:300. At least 8 wells were reserved as blank control on each of the plates, i.e., containing only 0.3% DMSO. In addition, at least 8 wells were reserved as positive control to detect the specificity to cell signals. Fluoxetine, a compound as the positive control, was assayed at its maximum blocking concentration (100 μm) and secondary maximum blocking concentration (10 μm). In addition, an internal recording solution used in the assay (with the components of: 100 mM K-gluconate, 40 mM KCl, 1 mM MgCl2, 1 mM EGTA and 10 mM HEPES, pH7.3) contained Amphotericin B at a final concentration of 200 μg/mL to gain current channels inside the cells. The osmotic pressure of the solution was adjusted with sucrose.
# Experimental procedures were carried out following the protocols as set by IonWorks Quattro system (Molecular Devices, San Jose, CA). The current of human Kv1.3 was elicited to 0 millivolt (mV) for four times by a pulse lasting 1 second. A potential of −80 mV was maintained between pulses, for 5 seconds. First, a early voltage application program was started in the IonWorks Quattro system, and then the compounds were added and incubated for 600 seconds. Next, a late voltage application program was started until completion of all assays.
# The maximum peak outward currents both before and after addition of the compounds as well as the average tail current elicited when the fourth pulse rose to 0 mV were measured. The inhibitory activity of the compounds against Kv1.3 can be calculated by dividing the measured current amplitude after addition of the compounds by the measured current amplitude before addition of the compounds.
# All data was calibrated by a data filtration program of the IonWorks Quattro system. The filtration standard was that: seal quality >30 MΩ, decrease of seal resistance <50% and current amplitude >200 pA.
# human Kv1.3 [2] = target: T1, human Kv1.3; assay: Conventional patch clamp assay of inhibitory activity against Kv1.3; format: cell-based; conditions: conventional patch-clamp method; CHO-K1 cells stably expressing human Kv1.3
# From the text: II. Conventional Patch Clamp Assay of Inhibitory Activity Against Kv1.3
# In order to compare the influence of different assay methods on the inhibitory activity of a compound, the conventional patch clamp method was used to assay the inhibitory activities of compounds 21, 37, 44, 61 against Kv1.3. The principle and method for the conventional patch clamp method can be found in Grissmer et al. [Grissmer et al. Molecular Pharmacology 1994, 45:1227-1234].
# as §1, with “of the” for “of a”, “against Kv1.3” for “against Kv1.5”, “human Kv1.3” for “human Kv1.5”, “River, California).” for “River, Calif.).”
# as §2, §3
# as §4, with “compounds. 1000 μM 4-AP was used as a positive control.” for “compounds.”
# as §5
# as §6, with “to 0” for “to 20”, “a Kv1.3” for “a Kv1.5”
# Data was collected and analyzed using pCLAMP 10 (Molecular Devices, Union City, CA). A stable current meant a current which varies within a limited range over time. […]
# [3] = system: rat model of psoriasis induced by imiquimod; assay: Rat model of psoriasis induced by imiquimod; format: in vivo; conditions: Wista female rats; for pathological analysis of skin (HE×100): skin lesions of the back collected on day 11, FIG. 3
# Experimental: V. Effects of Compound 24 on a Rat Model of Psoriasis Induced by Imiquimod
# SPF Wista female rats with body weight of around 200 g were used.
# Dexamethasone (DXMS) sodium phosphate injection, 5 mg/ml/injection (Shiyao Yinhu Pharmaceutical Co., Ltd.); 5% imiquimod cream, 0.25 g/pack (Sichuan MED-SHINE Pharmaceutical Co., Ltd.); 3×10^6 U recombinant human interferon α-2a injection, 1.0 ml/vial (Shenyang Sunshine Pharmaceutical Co., Ltd.); vehicle and negative control: acetone/DMSO 9:1 (Vehicle).
# 3.1 The animals were randomly divided into 6 groups based on body weight with 10 animals per group: normal control group, model control group, positive control group (dexamethasone sodium phosphate injection 5 mg/mL), 1% Compound 24 group, 0.3% Compound 24 group and 0.1% Compound 24 group.
# 3.2 Modelling and administration: after adaptive feeding for several days, for each of the rats, hair in central area of the back (2 cm×2 cm) was shaved, and then the surface short hair was shaved with mild depilatory cream, washed and dried. If hair on the back grew out again during the experiment, the hair was removed with a razor. Every morning, for the rats in model control group and administration groups, 5% imiquimod cream was evenly applied on the back at 20 mg/cm^2 (0.25 g/pack, for 3 rats), and after 10 min, recombinant human interferon α-2a injection was injected intraperitoneally at 10,000 U/500 g; for the normal control group, the rats were not treated, once a day, for 10 days. In the afternoon, for the rats in the administration groups, drugs were applied at a corresponding dose (drugs with corresponding concentrations were applied on the back at 100 μL/rat, twice, 50 μL each time) once a day for 10 days.
# 3.3 Psoriasis Area and Severity Index (PASI) score: according to PASI scoring standard, a score of 0-4 was given for erythema, scale and epidermal thickening of infiltration in the lesional skin of rats. The scoring criteria was as follows: 0, none; 1, mild; 2, moderate; 3, severe; 4, extremely severe. For the rats in each of the groups, the scores were averaged and changes in skin lesions of the rats were observed.
# 3.4 HE staining: after completion of modeling (on day 11), the tissues with skin lesions on the back of rats were collected, fixed with 4% neutral formaldehyde, embedded in paraffin, and sectioned. After HE staining, changes in skin histomorphology were observed under a microscope, and Baker scoring was performed. […]
# 3.5 Statistical Methods: all data was expressed as mean±standard deviation (x±s). […]
# [4] = system: SCID mouse psoriasis xenograft model; conditions: injection or topical skin application; cited from earlier work
# [5] = system: allergic contact dermatitis; conditions: applied topically, rat; cited from earlier work
# T1 sequence (P22001 whole entry): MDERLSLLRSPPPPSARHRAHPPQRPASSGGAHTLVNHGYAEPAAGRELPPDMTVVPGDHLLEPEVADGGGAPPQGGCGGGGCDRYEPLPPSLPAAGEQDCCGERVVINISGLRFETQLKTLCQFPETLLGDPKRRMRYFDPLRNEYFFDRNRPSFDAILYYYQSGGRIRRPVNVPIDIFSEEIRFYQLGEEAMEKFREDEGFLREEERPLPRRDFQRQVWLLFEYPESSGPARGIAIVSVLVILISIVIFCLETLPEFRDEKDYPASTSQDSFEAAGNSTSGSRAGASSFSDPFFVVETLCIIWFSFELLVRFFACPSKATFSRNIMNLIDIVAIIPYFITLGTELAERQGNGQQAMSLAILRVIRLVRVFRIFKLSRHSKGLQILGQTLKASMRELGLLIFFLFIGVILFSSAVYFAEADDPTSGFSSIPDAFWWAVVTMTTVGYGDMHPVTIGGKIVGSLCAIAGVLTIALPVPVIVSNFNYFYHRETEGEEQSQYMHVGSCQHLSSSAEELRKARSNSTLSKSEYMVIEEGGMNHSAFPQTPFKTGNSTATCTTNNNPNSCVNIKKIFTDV
# human Kv1.5, sequence (P22460 whole entry): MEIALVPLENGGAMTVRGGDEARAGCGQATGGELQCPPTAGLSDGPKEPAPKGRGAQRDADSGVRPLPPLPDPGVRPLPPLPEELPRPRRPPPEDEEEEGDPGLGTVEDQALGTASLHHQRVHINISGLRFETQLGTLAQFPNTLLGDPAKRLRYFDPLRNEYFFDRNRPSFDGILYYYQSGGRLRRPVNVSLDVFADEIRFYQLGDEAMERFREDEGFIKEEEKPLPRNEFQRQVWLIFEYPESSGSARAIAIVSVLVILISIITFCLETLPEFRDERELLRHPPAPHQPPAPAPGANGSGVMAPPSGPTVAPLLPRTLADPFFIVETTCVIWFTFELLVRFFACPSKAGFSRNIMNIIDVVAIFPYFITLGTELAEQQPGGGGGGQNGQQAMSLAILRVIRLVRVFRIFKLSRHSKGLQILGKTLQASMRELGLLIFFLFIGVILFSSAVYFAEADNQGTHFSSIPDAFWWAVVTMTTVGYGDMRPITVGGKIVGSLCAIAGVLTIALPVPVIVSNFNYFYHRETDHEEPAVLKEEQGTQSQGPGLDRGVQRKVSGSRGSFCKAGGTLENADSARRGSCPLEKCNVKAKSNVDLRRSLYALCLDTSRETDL
Structure (SMILES),IC50 (human Kv1.5) [µM],IC50 (human Kv1.3 [1]) [µM],IC50 (human Kv1.3 [2]) [µM],further results
"CCCS(=O)(=O)N(Cc1ccc(F)cc1)c1ccc(N2CCN(C(=O)N(C)C)CC2)c(C#N)c1 [Compound 21, 4-(2-cyano-4-(N-(4-fluorobenzyl)propyl)phenyl)-N,N-dimethylpiperazin-1-formamide]",2.82,0.097,0.141,
CCCS(=O)(=O)N(Cc1ccc(Cl)cc1)c1ccc(N2CCN(C(=O)OCC)CC2)c(C#N)c1 [Compound 24],,0.086,,"PASI score ([3]; 1%, 0.3%, 0.1% applied on the back once a day for 10 days, FIG. 2A): had a significant effect on psoriasis in a dose-dependent manner; also recorded: exhibited a significant efficacy on psoriasis in a dose-dependent manner; Baker score ([3]; 1%, 0.3%, 0.1% applied on the back once a day for 10 days, HE staining day 11, FIG. 2B): had a significant effect on psoriasis in a dose-dependent manner; also recorded: exhibited a significant efficacy on psoriasis in a dose-dependent manner; pathological analysis of skin (HE×100) [3]: had a significant effect on psoriasis in a dose-dependent manner; pathological analysis of skin (HE×100) ([3]; listed as compound 24): the skin structure was intact, the granular layer was visible, the skin was partly lengthened and clubbed, no acanthosis was observed, and a small amount infiltration of inflammatory cells was observed in the dermis"
"CCCS(=O)(=O)N(Cc1ccc(Cl)cc1)c1ccc(N2CCN(S(=O)(=O)N(C)C)CC2)c(C#N)c1 [Compound 44, 4-(4-(N-(4-chlorobenzyl)propanesulfonamido)-2-cyanophenyl)-N,N-dimethylpiperazin-1-sulfonamide]",7.9,0.096,0.111,
"CCCS(=O)(=O)N(Cc1ccccc1)c1ccc(N2CCN(C(=O)OCC)CC2=O)c(C#N)c1 [Compound 61, ethyl 4-(4-(N-benzylpropanesulfonamido)2-cyanophenyl)-3-oxopiperazin-1-formate]",2.11,0.092,0.13,
O=c1ccc2c(OCCCCOc3ccccc3)c3ccoc3cc2o1 [PAP-1],,,,reduction of infiltrated CD3+ lymphocytes [4]: 85%; reduction of thickness of pathological epidermal hyperplasia [4]: approximately 50%; allergic contact dermatitis [5]: can effectively inhibit allergic contact dermatitis
